In patent publication US10829520B2, “Beta-hairpin peptidomimetics” (POLYPHOR AG, priority 2015, dated 2020):
Where a SMILES comes first, the peptide text is derived from it. Bridges are numbered along the chain shown (N, C = ends). [ ]: non-standard residue; d: D form. dDab = NCC[C@@H](N)C(=O)O; Orn = NCCC[C@H](N)C(=O)O; Dab = NCC[C@H](N)C(=O)O; Sar = CNCC(=O)O

Columns and labels:
Assay type in all cases: cell-based
[1] = tested on: Acinetobacter baumannii 872842; details: 872842
[2] = tested on: Acinetobacter baumannii DSM 30008; details: DSM 30008
In short: (§1)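 CLSI broth microdilution in cation-adjusted Mueller-Hinton II broth with 0.002% Polysorbate 80, inoculum appr. 10^6 CFU/mL, peptides in serial two-fold dilutions. MIC (μg/mL) is the lowest concentration with no visible growth after 18-20 hours at 35° C.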

Escherichia coli 926415 = details: 926415
[3] = tested on: Escherichia coli ATCC 25922; details: ATCC 25922
In short: as §1

[4] = tested on: Klebsiella pneumoniae 968733; details: 968733
[5] = tested on: Klebsiella pneumoniae SSI #3010; details: SSI #3010
In short: as §1

[6] = tested on: Pseudomonas aeruginosa ATCC 27853; details: ATCC 27853
In short: as §1

[7] = tested on: human red blood cells (hRBC); experiment: Hemolysis of human red blood cells; details: red cells of human, 1 h, 100 μg/mL
In short: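 Hemolysis was read as supernatant absorbance at 540 nm and expressed as a percentage of Triton X-100 (2.5%) lysis. Washed human red cells (20% v/v) had been exposed to each peptide at 100 μg/mL for 1 h at 37° C.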

| SMILES | Acinetobacter baumannii 872842 MIC [1] [µg/mL] | Acinetobacter baumannii DSM 30008 MIC [2] [µg/mL] | Escherichia coli 926415 MIC (Escherichia coli 926415) [µg/mL] | Escherichia coli ATCC 25922 MIC [3] [µg/mL] | Klebsiella pneumoniae 968733 MIC [4] [µg/mL] | Klebsiella pneumoniae SSI #3010 MIC [5] [µg/mL] | Pseudomonas aeruginosa ATCC 27853 MIC [6] [µg/mL] | Hemolysis at 100 μg/mL [7] [%] |
| --- | --- | --- | --- | --- | --- | --- | --- | --- |
| CC(C)C[C@@H]1NC(=O)[C@@H](CC(C)C)NC(=O)[C@H](CCN)NC(=O)[C@@H](NC(=O)[C@H](CCN)NC(=O)[C@H](CCN)NC(=O)[C@@H](NC(=O)[C@H](CCCN)NC(=O)[C@@H]2CSSC[C@H](NC(=O)[C@@H](N)Cc3c[nH]c4ccccc34)C(=O)N[C@@H](C(C)C)C(=O)N[C@@H](Cc3ccc(O)cc3)C(=O)N[C@@H](CO)C(=O)N3CCC[C@@H]3C(=O)N3CCC[C@H]3C(=O)N[C@@H](CC(C)C)C(=O)N[C@@H](CC(=O)O)C(=O)N[C@@H](Cc3ccc(O)cc3)C(=O)N2)[C@@H](C)O)CCNC(=O)[C@H]([C@@H](C)O)NC(=O)[C@H](CCN)NC(=O)[C@H](CCN)NC1=O [Ex. 151] (H-WCVYS[dP]PLDYC[Orn]T[Dab][Dab][Dab][Dab][dL]L[Dab][Dab]T; disulfide 2-11; lactam 16-C) | 0.5 | 1 | 2 | 0.25 | 8 | 1 | 0.5 | <1 |
| CC(C)C[C@@H]1NC(=O)[C@@H](CC(C)C)NC(=O)[C@H](CCN)NC(=O)[C@@H](NC(=O)[C@H](CCN)NC(=O)[C@@H](NC(=O)[C@H](CCN)NC(=O)CN(C)C(=O)[C@@H]2CSSC[C@H](NC(=O)[C@@H](N)Cc3c[nH]c4ccccc34)C(=O)N[C@@H](C(C)C)C(=O)N[C@@H](CCCNC(=N)N)C(=O)N[C@@H](CCCNC(=N)N)C(=O)N3CCC[C@@H]3C(=O)N3CCC[C@H]3C(=O)N[C@@H](CC(C)C)C(=O)N[C@@H](CO)C(=O)N[C@@H](Cc3ccc(O)cc3)C(=O)N2)[C@@H](C)O)CCNC(=O)[C@H]([C@@H](C)O)NC(=O)[C@H](CCN)NC(=O)[C@H](CCN)NC1=O [Ex. 152] (H-WCVRR[dP]PLSYC[Sar][Dab]T[Dab][Dab][Dab][dL]L[Dab][Dab]T; disulfide 2-11; lactam 16-C) | 0.125 | 0.25 | 2 | 0.25 | 8 | 0.25 | 2 | 1 |
| CC(C)C[C@@H]1NC(=O)[C@H](CO)NC(=O)[C@H](Cc2ccc(O)cc2)NC(=O)[C@@H]2CCCN2C(=O)[C@H]2CCCN2C(=O)[C@H](Cc2ccc(O)cc2)NC(=O)[C@H](C)NC(=O)[C@H](C(C)C)NC(=O)[C@@H](NC(=O)[C@@H](N)Cc2c[nH]c3ccccc23)CSSC[C@@H](C(=O)NCC(=O)N[C@@H](CCN)C(=O)N[C@H](C(=O)N[C@@H](CCN)C(=O)N[C@H]2CCNC(=O)[C@H]([C@@H](C)O)NC(=O)[C@H](CCN)NC(=O)[C@H](CCN)NC(=O)[C@H](CC(C)C)NC(=O)[C@@H](CC(C)C)NC(=O)[C@H](CCN)NC2=O)[C@@H](C)O)NC1=O [Ex. 153] (H-WCVAY[dP]PYSLCG[Dab]T[Dab][Dab][Dab][dL]L[Dab][Dab]T; disulfide 2-11; lactam 16-C) | 0.03125 | 0.125 | 0.125 | 0.0625 | 0.0625 | 0.0625 | 0.5 | <1 |
| CC(C)C[C@@H]1NC(=O)[C@H](CO)NC(=O)[C@H](CC(C)C)NC(=O)[C@@H]2CCCN2C(=O)[C@H]2CCCN2C(=O)[C@H]([C@@H](C)O)NC(=O)[C@H](C)NC(=O)[C@H](C(C)C)NC(=O)[C@@H](NC(=O)[C@@H](N)CC(C)C)CSSC[C@@H](C(=O)NCC(=O)N[C@@H](CCN)C(=O)N[C@H](C(=O)N[C@@H](CCN)C(=O)N[C@H]2CCNC(=O)[C@H]([C@@H](C)O)NC(=O)[C@H](CCN)NC(=O)[C@H](CCN)NC(=O)[C@H](CC(C)C)NC(=O)[C@@H](CC(C)C)NC(=O)[C@H](CCN)NC2=O)[C@@H](C)O)NC1=O [Ex. 154] (H-LCVAT[dP]PLSLCG[Dab]T[Dab][Dab][Dab][dL]L[Dab][Dab]T; disulfide 2-11; lactam 16-C) | 0.03125 | 0.0625 | 0.125 | 0.0625 | 0.25 | 0.0625 | 1 | <1 |
| CC(C)C[C@@H]1NC(=O)[C@H](CO)NC(=O)[C@H](Cc2ccc(O)cc2)NC(=O)[C@@H]2CCCN2C(=O)[C@H]2CCCN2C(=O)[C@H](C(C)C)NC(=O)[C@H](C)NC(=O)[C@H](C(C)C)NC(=O)[C@@H](NC(=O)[C@@H](N)C(C)C)CSSC[C@@H](C(=O)NCC(=O)N[C@@H](CCN)C(=O)N[C@H](C(=O)N[C@@H](CCN)C(=O)N[C@H]2CCNC(=O)[C@H]([C@@H](C)O)NC(=O)[C@H](CCN)NC(=O)[C@H](CCN)NC(=O)[C@H](CC(C)C)NC(=O)[C@@H](CC(C)C)NC(=O)[C@H](CCN)NC2=O)[C@@H](C)O)NC1=O [Ex. 155] (H-VCVAV[dP]PYSLCG[Dab]T[Dab][Dab][Dab][dL]L[Dab][Dab]T; disulfide 2-11; lactam 16-C) | 0.0625 | 0.03125 | 0.25 | 0.0625 | 0.5 | 0.0625 | 1 | <1 |
| CC(C)C[C@@H]1NC(=O)[C@H](CO)NC(=O)[C@H](Cc2ccc(O)cc2)NC(=O)[C@@H]2CCCN2C(=O)[C@H]2CCCN2C(=O)[C@H](Cc2c[nH]cn2)NC(=O)[C@H](C)NC(=O)[C@H](C(C)C)NC(=O)[C@@H](NC(=O)[C@@H](N)CC(C)C)CSSC[C@@H](C(=O)NCC(=O)N[C@@H](CCN)C(=O)N[C@H](C(=O)N[C@@H](CCN)C(=O)N[C@H]2CCNC(=O)[C@H]([C@@H](C)O)NC(=O)[C@H](CCN)NC(=O)[C@H](CCN)NC(=O)[C@H](CC(C)C)NC(=O)[C@@H](CC(C)C)NC(=O)[C@H](CCN)NC2=O)[C@@H](C)O)NC1=O [Ex. 156] (H-LCVAH[dP]PYSLCG[Dab]T[Dab][Dab][Dab][dL]L[Dab][Dab]T; disulfide 2-11; lactam 16-C) | 0.0625 | 0.125 | 1 | 0.125 | 0.5 | 0.125 | 0.25 | <1 |
| CC(C)C[C@@H]1NC(=O)[C@@H](CC(C)C)NC(=O)[C@H](CCN)NC(=O)[C@@H](NC(=O)[C@H](CCN)NC(=O)[C@@H](NC(=O)[C@H](CCN)NC(=O)CNC(=O)[C@@H]2CSSC[C@H](NC(=O)[C@@H](N)CC(C)C)C(=O)N[C@@H](C(C)C)C(=O)N[C@@H](C)C(=O)N[C@@H](Cc3ccc(O)cc3)C(=O)N[C@H](CCN)C(=O)N3CCC[C@H]3C(=O)N[C@@H](CC(C)C)C(=O)N[C@@H](CO)C(=O)N[C@@H](Cc3ccc(O)cc3)C(=O)N2)[C@@H](C)O)CCNC(=O)[C@H]([C@@H](C)O)NC(=O)[C@H](CCN)NC(=O)[C@H](CCN)NC1=O [Ex. 157] (H-LCVAY[dDab]PLSYCG[Dab]T[Dab][Dab][Dab][dL]L[Dab][Dab]T; disulfide 2-11; lactam 16-C) | 0.03125 | 0.0625 | 0.125 | 0.0625 | 1 | 0.125 | 0.5 | <1 |
| CC(C)C[C@@H]1NC(=O)[C@H](CO)NC(=O)[C@H](Cc2ccc(O)cc2)NC(=O)[C@@H]2CCCN2C(=O)[C@H]2CCCN2C(=O)[C@H]([C@@H](C)O)NC(=O)[C@H](C)NC(=O)[C@H](Cc2ccc(O)cc2)NC(=O)[C@@H](NC(=O)[C@@H](N)CC(C)C)CSSC[C@@H](C(=O)NCC(=O)N[C@@H](CCN)C(=O)N[C@H](C(=O)N[C@@H](CCN)C(=O)N[C@H]2CCNC(=O)[C@H]([C@@H](C)O)NC(=O)[C@H](CCN)NC(=O)[C@H](CCN)NC(=O)[C@H](CC(C)C)NC(=O)[C@@H](CC(C)C)NC(=O)[C@H](CCN)NC2=O)[C@@H](C)O)NC1=O [Ex. 158] (H-LCYAT[dP]PYSLCG[Dab]T[Dab][Dab][Dab][dL]L[Dab][Dab]T; disulfide 2-11; lactam 16-C) | 0.25 | 0.25 | 4 | 0.125 | 8 | 0.125 | 0.5 | <1 |
